{"source": "patent US20180104264A1", "about": "“Method for Preparing Lyophilized Organic Solvent-Free Cyclophosphamide” (KOREA UNITED PHARM. INC., priority 2016, published 2018)", "experiment": "Measurement of porosity (KOPTRI)", "format": "physicochemical", "description": "Porosity measurement for the samples prepared by the present applicant was requested from the Korea Polymer Testing & Research Institute (KOPTRI), an authorized international testing agency.", "data": [{"smiles": "O=P1(N(CCCl)CCCl)NCCCO1", "note": "(stereo not drawn) [Comparison 4, 2-[bis(2-chloroethyl)amino]tetrahydro-2H-1,3,2-oxazaphosphorin-2-oxide]", "values": [{"measurement": "Apparent density", "result": 1.31, "unit": "g/mL"}, {"measurement": "Porosity", "result": 5.24, "unit": "%"}, {"measurement": "Average diameter", "setting": "pore size", "result": 0.02, "unit": "μm"}]}]}
